Assay results as given in patent publication US20220041647A1, “ESTRA-1,3,5(10)-TRIENE COMPOUNDS CONDENSED IN POSITION 16(17) WITH A PYRAZOLE RING AS INHIBITORS OF 17-HSD1” (FORENDO PHARMA LTD, priority 2018, published 2022).

Tests used:
[1] = Metabolic stability assay, human hepatocyte incubations; format: in vitro ADME; conditions: compound 1 μM, human hepatocytes, 0-60 min at 37° C.; read-out: Human hepatocytes MetStab T½ min
In short: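 Compounds at 1 μM (1% DMSO final) incubated with human hepatocytes at 37 °C for 0, 10, 20, 40 and 60 min. Parent measured by LC-MS/MS as % remaining versus time zero; T1/2 obtained by regression of the disappearance curve.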

[2] = molecular target: T1, recombinant human 17β-HSD2 (Homo sapiens, UniProt P37059); assay: Inhibition of recombinant human 17β-HSD2 (estradiol to estrone conversion, HPLC/radioactivity); format: biochemical; conditions: compound 1 μM; 50 nM estradiol, 1 mM NADH, 30 min RT
T1 construct: made in house; host or cells: Sd9 (Sf9) insect cells, baculovirus (Bac to Bac Expression System)
T1 sequence (P37059 1-387): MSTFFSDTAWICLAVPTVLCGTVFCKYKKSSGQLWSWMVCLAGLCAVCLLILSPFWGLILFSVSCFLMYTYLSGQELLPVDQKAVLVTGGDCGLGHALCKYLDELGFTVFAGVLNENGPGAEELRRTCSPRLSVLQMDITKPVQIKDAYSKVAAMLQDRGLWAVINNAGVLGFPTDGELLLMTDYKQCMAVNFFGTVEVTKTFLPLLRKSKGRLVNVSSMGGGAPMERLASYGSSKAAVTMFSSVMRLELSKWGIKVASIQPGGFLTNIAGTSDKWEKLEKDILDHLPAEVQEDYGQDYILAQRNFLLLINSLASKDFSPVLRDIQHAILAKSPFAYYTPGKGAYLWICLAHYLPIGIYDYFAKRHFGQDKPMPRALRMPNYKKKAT
In short: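 Membrane extract of Sf9 cells expressing recombinant human 17β-HSD2 (4 μg/ml), in 20 mM KH2PO4 pH 8.5 with 50 nM ^3H-spiked estradiol and 1 mM NADH, 30 min at RT, 1% DMSO. Compound at 1 μM or 0.1 μM; estrone formation by HPLC radioactivity, % inhibition relative to uninhibited conversion.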

Question: Which half-life at 1 μM [1] does the source give for C[C@]12CCC3c4ccccc4CCC3C1[C@H](CCC(=O)Nc1cnccn1)c1c[nH]nc12 (stereo partly drawn) [Compound 189, 3-((8aS,12S)-8a-methyl-1,2,6b,7,8,8a,10,12,12a,12b-decahydronaphtho[2′,1′:4,5]indeno[1,2-c]pyrazol-12-yl)-N-(pyrazin-2-yl)propanamide] here?
Answer: Its half-life at 1 μM is 30 min.

Question: What about the inhibition at 1 µM [2] of the same compound?
Answer: Its inhibition at 1 µM is 9%.

Question: What does the source list for COc1ccc(NC(=O)CC[C@@H]2c3c[nH]nc3[C@@]3(C)CCC4c5ccc(F)cc5CCC4C23)nc1 (stereo partly drawn) [Compound 84, 3-((8aS,12S)-4-fluoro-8a-methyl-1,2,6b,7,8,8a,10,12,12a,12b-decahydronaphtho[2′,1′:4,5]indeno[1,2-c]pyrazol-12-yl)-N-(5-methoxypyridin-2-yl)propanamide]?
Answer: half-life at 1 μM [1]: 148 min; inhibition at 1 µM [2]: 2%

Question: For COc1ccc(NC(=O)CC[C@@H]2c3c[nH]nc3[C@@]3(C)CCC4c5ccccc5CCC4C23)nn1 (stereo partly drawn) [Compound 156, N-(6-methoxypyridazin-3-yl)-3-((8aS,12S)-8a-methyl-1,2,6b,7,8,8a,10,12,12a,12b-decahydronaphtho[2′,1′:4,5]indeno[1,2-c]pyrazol-12-yl)propanamide], which half-life at 1 μM [1] is on record?
Answer: Its half-life at 1 μM is 93 min.

Question: What about the inhibition at 1 µM [2] of the same compound?
Answer: Its inhibition at 1 µM is -3%.

Question: With CN(C)C(=O)CC[C@@H]1c2c[nH]nc2[C@@]2(C)CCC3c4cccc(F)c4CCC3C12 (stereo partly drawn) [Compound 222, 3-((8aS,12S)-3-fluoro-8a-methyl-1,2,6b,7,8,8a,10,12,12a,12b-decahydronaphtho[2′,1′:4,5]indeno[1,2-c]pyrazol-12-yl)-N,N-dimethylpropanamide] as the compound, how does the half-life at 1 μM [1] read?
Answer: The half-life at 1 μM was 12 min.

Question: And the inhibition at 1 µM [2]?
Answer: Its inhibition at 1 µM is 0%.

Question: For C[C@]12CCC3c4cccc(F)c4CCC3C1[C@H](CCC(=O)Nc1ncccc1F)c1c[nH]nc12 (stereo partly drawn) [Compound 231, 3-((8aS,12S)-3-fluoro-8a-methyl-1,2,6b,7,8,8a,10,12,12a,12b-decahydronaphtho[2′,1′:4,5]indeno[1,2-c]pyrazol-12-yl)-N-(3-fluoropyridin-2-yl)propanamide], which half-life at 1 μM [1] is on record?
Answer: The half-life at 1 μM was 29 min.

Question: And the inhibition at 1 µM [2]?
Answer: The inhibition at 1 µM was 4%.

Question: Which half-life at 1 μM [1] does the source give for C[C@]12CCC3c4cccc(F)c4CCC3C1[C@H](CCC(=O)Nc1cc(F)ccn1)c1c[nH]nc12 (stereo partly drawn) [Compound 15, 3-((8aS,12S)-3-fluoro-8a-methyl-1,2,6b,7,8,8a,10,12,12a,12b-decahydronaphtho[2′,1′:4,5]indeno[1,2-c]pyrazol-12-yl)-N-(4-fluoropyridin-2-yl)propanamide] here?
Answer: Its half-life at 1 μM is 43 min.

Question: And the inhibition at 1 µM [2]?
Answer: The inhibition at 1 µM was 6%.

Question: For COc1ccc(NC(=O)CC[C@@H]2c3c[nH]nc3[C@@]3(C)CCC4c5cccc(F)c5CCC4C23)nc1 (stereo partly drawn) [Compound 21, 3-((8aS,12S)-3-fluoro-8a-methyl-1,2,6b,7,8,8a,10,12,12a,12b-decahydronaphtho[2′,1′:4,5]indeno[1,2-c]pyrazol-12-yl)-N-(5-methoxypyridin-2-yl)propanamide], which half-life at 1 μM [1] is on record?
Answer: Its half-life at 1 μM is 40 min.

Question: What about the inhibition at 1 µM [2] of the same compound?
Answer: Its inhibition at 1 µM is 4%.

Question: For CC(C)c1ccc(NC(=O)CC[C@@H]2c3c[nH]nc3[C@@]3(C)CCC4c5ccc(F)cc5CCC4C23)nc1 (stereo partly drawn) [Compound 87, 3-((8aS,12S)-4-fluoro-8a-methyl-1,2,6b,7,8,8a,10,12,12a,12b-decahydronaphtho[2′,1′:4,5]indeno[1,2-c]pyrazol-12-yl)-N-(5-isopropylpyridin-2-yl)propanamide], which half-life at 1 μM [1] is on record?
Answer: The half-life at 1 μM was 127 min.

Question: And the inhibition at 1 µM [2]?
Answer: Its inhibition at 1 µM is 6%.

Question: What does the source list for COc1ccc(NC(=O)CC[C@@H]2c3c[nH]nc3[C@@]3(C)CCC4c5ccccc5CCC4C23)nc1 (stereo partly drawn) [Compound 141, N-(5-methoxypyridin-2-yl)-3-((8aS,12S)-8a-methyl-1,2,6b,7,8,8a,10,12,12a,12b-decahydronaphtho[2′,1′:4,5]indeno[1,2-c]pyrazol-12-yl)propanamide]?
Answer: half-life at 1 μM [1]: 45 min; inhibition at 1 µM [2]: -1%

Question: Which results are given for Cn1ccc(NC(=O)CC[C@@H]2c3c[nH]nc3[C@@]3(C)CCC4c5cccc(F)c5CCC4C23)n1 (stereo partly drawn) [Compound 54, 3-((8aS,12S)-3-fluoro-8a-methyl-1,2,6b,7,8,8a,10,12,12a,12b-decahydronaphtho[2′,1′:4,5]indeno[1,2-c]pyrazol-12-yl)-N-(1-methyl-1H-pyrazol-3-yl)propanamide]?
Answer: half-life at 1 μM [1]: 68 min; inhibition at 1 µM [2]: 8%

Question: For CN(C)C(=O)c1ccc(NC(=O)CC[C@@H]2c3c[nH]nc3[C@@]3(C)CCC4c5ccc(Cl)cc5CCC4C23)nc1 (stereo partly drawn) [Compound 126, 6-(3-((8aS,12S)-4-chloro-8a-methyl-1,2,6b,7,8,8a,10,12,12a,12b-decahydronaphtho[2′,1′:4,5]indeno[1,2-c]pyrazol-12-yl)propanamido)-N,N-dimethylnicotinamide], which half-life at 1 μM [1] is on record?
Answer: The half-life at 1 μM was 147 min.

Question: And the inhibition at 1 µM [2]?
Answer: The inhibition at 1 µM was 12%.

Question: What does the source list for C[C@]12CCC3c4cccc(F)c4CCC3C1[C@H](CCC(=O)N1CCCC1)c1c[nH]nc12 (stereo partly drawn) [Compound 210, 3-((8aS,12S)-3-fluoro-8a-methyl-1,2,6b,7,8,8a,10,12,12a,12b-decahydronaphtho[2′,1′:4,5]indeno[1,2-c]pyrazol-12-yl)-1-(pyrrolidin-1-yl)propan-1-one]?
Answer: half-life at 1 μM [1]: 11 min; inhibition at 1 µM [2]: 0%

Question: For C[C@]12CCC3c4cccc(F)c4CCC3C1[C@H](CCC(=O)N1Cc3ccccc3C1)c1c[nH]nc12 (stereo partly drawn) [Compound 57, 3-((8aS,12S)-3-fluoro-8a-methyl-1,2,6b,7,8,8a,10,12,12a,12b-decahydronaphtho[2′,1′:4,5]indeno[1,2-c]pyrazol-12-yl)-1-(isoindolin-2-yl)propan-1-one], which half-life at 1 μM [1] is on record?
Answer: Its half-life at 1 μM is 58 min.

Question: And the inhibition at 1 µM [2]?
Answer: The inhibition at 1 µM was 16%.

Question: What does the source list for C[C@]12CCC3c4cccc(F)c4CCC3C1[C@H](CCC(=O)Nc1ccc(N3CCOCC3)cn1)c1c[nH]nc12 (stereo partly drawn) [Compound 39, 3-((8aS,12S)-3-fluoro-8a-methyl-1,2,6b,7,8,8a,10,12,12a,12b-decahydronaphtho[2′,1′:4,5]indeno[1,2-c]pyrazol-12-yl)-N-(5-morpholinopyridin-2-yl)propanamide]?
Answer: half-life at 1 μM [1]: 67 min; inhibition at 1 µM [2]: 9%

Question: Which results are given for C[C@]12CCC3c4cccc(F)c4CCC3C1[C@H](CCC(=O)Nc1cc3c([nH]c1=O)CCCC3)c1c[nH]nc12 (stereo partly drawn) [Compound 30, 3-((8aS,12S)-3-fluoro-8a-methyl-1,2,6b,7,8,8a,10,12,12a,12b-decahydronaphtho[2′,1′:4,5]indeno[1,2-c]pyrazol-12-yl)-N-(2-oxo-1,2,5,6,7,8-hexahydroquinolin-3-yl)propanamide]?
Answer: half-life at 1 μM [1]: 117 min; inhibition at 1 µM [2]: 3%

Question: Which half-life at 1 μM [1] does the source give for COc1ccnc(NC(=O)CC[C@@H]2c3c[nH]nc3[C@@]3(C)CCC4c5ccccc5CCC4C23)c1 (stereo partly drawn) [Compound 165, N-(4-methoxypyridin-2-yl)-3-((8aS,12S)-8a-methyl-1,2,6b,7,8,8a,10,12,12a,12b-decahydronaphtho[2′1′:4,5]indeno[1,2-c]pyrazol-12-yl)propanamide] here?
Answer: The half-life at 1 μM was 44 min.

Question: What about the inhibition at 1 µM [2] of the same compound?
Answer: The inhibition at 1 µM was -2%.
